Assay results published in patent publication US20090023784A1, “USE OF DEFERIPRONE AND METHODS TO TREAT AND/OR PREVENT FRIEDREICH ATAXIA RESULTING FROM INTRACELLULAR MISHANDLING OF IRON” (priority 2006, published 2009).
Entries after “also recorded” stand apart in the source; their conditions may differ.

System: patients with Friedreich ataxia
Assay: Phase I-II open pilot trial: ICARS, Perdue Pegboard and parents' observations (patients kept on idebenone)
Type: in vivo, human
Details: for Perdue pegboard: number of nails inserted
Description: Ten adolescents (four males, six females aged 14 to 23 yrs) with a diagnosis of Friedreich ataxia, confirmed by detection of a trinucleotide-repeat expansion in the first intron of the frataxin gene, were studied. Patients received deferiprone (Ferriprox™, Apotex Inc., Toronto, Canada) orally, in two doses for 1-5 months. Three patients were included, sequentially, for a minimum period of two months at each dose. Patient enrollment was staggered by two-weeks to enable monitoring of response. In the absence of toxicity, and with evidence of efficacy in any of the first 3 patients, a second group of 3 patients would be included at the same dose for a total duration of 6 months. If there was an absence of both efficacy and toxicity, the second group of three patients would be administered a higher dose. If toxicity developed, the current dose would be suspended and the trial resumed with the next group of patients at a lower dose. The patients were on idebenone (10 mg/kg/day, in three doses) for at least two years prior to inclusion and were kept on the drug at the same dose for the duration of the trial. MRI examinations were done at inclusion and at 1, 2, 4 and 6 months. The protocol was promoted by Assistance Publique-Hopitaux de Paris and approved by the local ethical committee and registered at the National Health Authority (AFSSAPS) and at the International Protocol Registration System (www.clinicaltrials.gov). A written informed consent was obtained from patients and parents.
The International Cooperative Ataxia Rating Score (ICARS) was used to assess the symptoms of ataxia before and after 1-5 months (Cano et al. International cooperative ataxia rating scale (ICARS): Appropriate for studies of Friedreich's ataxia? Mov Disord 2005; 20:1585-91). This scale has four subscales: posture and gait disturbance, kinetic functions, speech disorders and oculomotor disorders. Subscale scores are summed to give a total score ranging from 0 to 100. High scores indicated worse ataxia. The Perdue Pegboard test, which assesses speed of performance, delicate movements and manipulative dexterity, was included in the course of the study. This test assesses the ability of the participant to insert as many nails as possible into preset holes, linearly dug in a wooden board in a limited space of time (20 seconds with the two hands, separately and together). The tests were administered by the same investigator. Patients were monitored for neutropenia, agranulocytosis, musculoskeletal pains and zinc deficiency and had weekly blood counts, plasma iron, serum ferritin and transferrin concentration measurements, as well as assessments of renal and liver function.

[1] = patient eight, DFP 20 mg/kg, 4 mth, after trial
[2] = patient eight, DFP 20 mg/kg, 4 mth, prior to trial
[3] = patient five, DFP 30 mg/kg, 1 mth, after trial
[4] = patient five, DFP 30 mg/kg, 1 mth, prior to trial
[5] = patient four, DFP 20 mg/kg, 2 mth, after trial
[6] = patient four, DFP 20 mg/kg, 2 mth, prior to trial
[7] = patient one, DFP 20 mg/kg, 5 mth, after trial
[8] = patient one, DFP 20 mg/kg, 5 mth, prior to trial
[9] = patient six, DFP 30 mg/kg, 1 mth, after trial
[10] = patient six, DFP 30 mg/kg, 1 mth, prior to trial
[11] = patient three, DFP 20 mg/kg, 2 mth, after trial
[12] = patient three, DFP 20 mg/kg, 2 mth, prior to trial
[13] = patient two, DFP 20 mg/kg, 3 mth, after trial
[14] = patient two, DFP 20 mg/kg, 3 mth, prior to trial

Cc1c(O)c(=O)ccn1C [Deferiprone, 3-hydroxy-1,2-dimethylpyridin-4-one]
time to disappearance of constipation, incontinence and some subjective signs of peripheral neuropathy (20 mg/kg/day oral): 1-2 months | neurological condition noted by parents and uninformed relatives (20 mg/kg/day oral, within a few weeks, all treated patients): unexpected neurological improvement | changes of the ICARS scores (20 mg/kg/day, short period of the trial): mild changes of the ICARS scores | Perdue Pegboard test: speed of performances and dexterity (30 mg/kg/day oral, before and 1-2 months after onset): improvement of speed of performances and dexterity | Kinetic function (/29) [1]: 7 | Oculomotor disorder (/6) [1]: 2 | Posture and gait disturbance: 7 items (/34) [1]: 9 | Posture and gait disturbance: gait speed [1]: 1 | Posture and gait disturbance: spread feet [1]: 3 | Posture and gait disturbance: standing eyes open [1]: 1 | Posture and gait disturbance: walking [1]: 2 | Speech disorder (/8) [1]: 2 | Total ICARS (/100) [1]: 20 | Observation (patient eight, DFP 20 mg/kg, 4 mth, listed as DFP): no more incontinence, improved gait and balance, warming; also recorded: up of feet | Kinetic function (/29) [2]: 7 | Oculomotor disorder (/6) [2]: 2 | Posture and gait disturbance: 7 items (/34) [2]: 12 | Posture and gait disturbance: gait speed [2]: 1 | Posture and gait disturbance: spread feet [2]: 3 | Posture and gait disturbance: standing eyes open [2]: 2 | Posture and gait disturbance: walking [2]: 3 | Speech disorder (/8) [2]: 2 | Total ICARS (/100) [2]: 23 | Kinetic function (/29) [3]: 8 | Oculomotor disorder (/6) [3]: 2 | Posture and gait disturbance: 7 items (/34) [3]: 8 | Posture and gait disturbance: gait speed [3]: 2 | Posture and gait disturbance: spread feet [3]: 0 | Posture and gait disturbance: standing eyes open [3]: 1 | Posture and gait disturbance: walking [3]: 2 | Speech disorder (/8) [3]: 2 | Total ICARS (/100) [3]: 20 | Observation (patient five, DFP 30 mg/kg, 1 mth, listed as DFP): no more constipation, incontinence and bending, improved; also recorded: balance and gait | Kinetic function (/29) [4]: 8 | Oculomotor disorder (/6) [4]: 2 | Posture and gait disturbance: 7 items (/34) [4]: 11 | Posture and gait disturbance: gait speed [4]: 2 | Posture and gait disturbance: spread feet [4]: 1 | Posture and gait disturbance: standing eyes open [4]: 2 | Posture and gait disturbance: walking [4]: 2 | Speech disorder (/8) [4]: 2 | Total ICARS (/100) [4]: 23 | Kinetic function (/29) [5]: 12 | Oculomotor disorder (/6) [5]: 0 | Posture and gait disturbance: 7 items (/34) [5]: 13 | Posture and gait disturbance: gait speed [5]: 1 | Posture and gait disturbance: spread feet [5]: 2 | Posture and gait disturbance: standing eyes open [5]: 1 | Posture and gait disturbance: walking [5]: 3 | Speech disorder (/8) [5]: 2 | Total ICARS (/100) [5]: 27 | Perdue pegboard [5]: 29 | Perdue pegboard [6]: 37 | Kinetic function (/29) [6]: 13 | Oculomotor disorder (/6) [6]: 0 | Posture and gait disturbance: 7 items (/34) [6]: 16 | Posture and gait disturbance: gait speed [6]: 1 | Posture and gait disturbance: spread feet [6]: 2 | Posture and gait disturbance: standing eyes open [6]: 3 | Posture and gait disturbance: walking [6]: 3 | Speech disorder (/8) [6]: 2 | Total ICARS (/100) [6]: 31 | Kinetic function (/29) [7]: 7 | Oculomotor disorder (/6) [7]: 2 | Posture and gait disturbance: 7 items (/34) [7]: 27 | Posture and gait disturbance: gait speed [7]: 3 | Posture and gait disturbance: spread feet [7]: 2 | Posture and gait disturbance: standing eyes open [7]: 4 | Posture and gait disturbance: walking [7]: 7 | Speech disorder (/8) [7]: 0 | Total ICARS (/100) [7]: 37 | Observation (patient one, DFP 20 mg/kg, 5 mth, listed as DFP): improved gait, writing, delicate movements, can move them; also recorded: toes, feels their feet, warming up of feet | Kinetic function (/29) [8]: 8 | Oculomotor disorder (/6) [8]: 2 | Posture and gait disturbance: 7 items (/34) [8]: 28 | Posture and gait disturbance: gait speed [8]: 3 | Posture and gait disturbance: spread feet [8]: 3 | Posture and gait disturbance: standing eyes open [8]: 4 | Posture and gait disturbance: walking [8]: 7 | Speech disorder (/8) [8]: 1 | Total ICARS (/100) [8]: 39 | Observation (patient seven, DFP 20 mg/kg, 5 mth, listed as DFP): improved gait, writing, delicate movements, can move them; also recorded: toes, feels their feet, warming up of feet | Observation (patient six, DFP 30 mg/kg, 1 mth): improved gait and standing, no more constipation | Kinetic function (/29) [9]: 9 | Oculomotor disorder (/6) [9]: 0 | Posture and gait disturbance: 7 items (/34) [9]: 17 | Posture and gait disturbance: gait speed [9]: 1 | Posture and gait disturbance: spread feet [9]: 2 | Posture and gait disturbance: standing eyes open [9]: 2 | Posture and gait disturbance: walking [9]: 7 | Speech disorder (/8) [9]: 0 | Total ICARS (/100) [9]: 26 | Perdue pegboard [9]: 39 | Perdue pegboard [10]: 52 | Kinetic function (/29) [10]: 9 | Oculomotor disorder (/6) [10]: 0 | Posture and gait disturbance: 7 items (/34) [10]: 20 | Posture and gait disturbance: gait speed [10]: 1 | Posture and gait disturbance: spread feet [10]: 2 | Posture and gait disturbance: standing eyes open [10]: 3 | Posture and gait disturbance: walking [10]: 7 | Speech disorder (/8) [10]: 0 | Total ICARS (/100) [10]: 29 | Kinetic function (/29) [11]: 11 | Oculomotor disorder (/6) [11]: 0 | Posture and gait disturbance: 7 items (/34) [11]: 16 | Posture and gait disturbance: gait speed [11]: 2 | Posture and gait disturbance: spread feet [11]: 3 | Posture and gait disturbance: standing eyes open [11]: 4 | Posture and gait disturbance: walking [11]: 7 | Speech disorder (/8) [11]: 2 | Total ICARS (/100) [11]: 29 | Perdue pegboard [11]: 44 | Perdue pegboard [12]: 37 | Kinetic function (/29) [12]: 11 | Oculomotor disorder (/6) [12]: 0 | Posture and gait disturbance: 7 items (/34) [12]: 17 | Posture and gait disturbance: gait speed [12]: 2 | Posture and gait disturbance: spread feet [12]: 3 | Posture and gait disturbance: standing eyes open [12]: 5 | Posture and gait disturbance: walking [12]: 7 | Speech disorder (/8) [12]: 3 | Total ICARS (/100) [12]: 31 | Observation (patient two, DFP 20 mg/kg, 3 mth): no more fatigue, improved delicate movements | Kinetic function (/29) [13]: 21 | Oculomotor disorder (/6) [13]: 2 | Posture and gait disturbance: 7 items (/34) [13]: 32 | Posture and gait disturbance: gait speed [13]: 4 | Posture and gait disturbance: spread feet [13]: 4 | Posture and gait disturbance: standing eyes open [13]: 6 | Posture and gait disturbance: walking [13]: 7 | Speech disorder (/8) [13]: 4 | Total ICARS (/100) [13]: 59 | Kinetic function (/29) [14]: 21 | Oculomotor disorder (/6) [14]: 3 | Posture and gait disturbance: 7 items (/34) [14]: 33 | Posture and gait disturbance: gait speed [14]: 4 | Posture and gait disturbance: spread feet [14]: 4 | Posture and gait disturbance: standing eyes open [14]: 6 | Posture and gait disturbance: walking [14]: 7 | Speech disorder (/8) [14]: 4 | Total ICARS (/100) [14]: 61
